# Reference: patent US20220274947A1, “NOVEL HETEROARYL-TRIAZOLE COMPOUNDS AS PESTICIDES” (Bayer Aktiengesellschaft, priority 2019, published 2022)
# Experiments:
# Type in all cases: in vivo
# [1] = test system: Musca domestica strain WHO—N; assay: Musca domestica test (MUSCDO surface treatment & contact assay); settings: exposure 30 minutes, 24 hours after contact, read-out: efficacy (mortality); for mortality at 20 mg/m2: surface concentration 20 mg/m^2, glazed tile; for mortality at 4 mg/m2: surface concentration 4 mg/m^2, glazed tile
# How it was run: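 Compound dissolved in acetone (2 mg/ml) with 2000 ppm rapeseed oil methyl ester and pipetted onto glazed tile; after acetone evaporation, adult flies exposed to dried surface for 30 minutes. Mortality (%) scored 24 hours after contact.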
# [2] = test system: Aedes aegypti strain MONHEIM; assay: Aedes aegypti test (AEDSAE surface treatment & contact assay); settings: exposure 30 minutes, 24 hours after contact, read-out: efficacy (mortality); for mortality at 4 mg/m2: surface concentration 4 mg/m^2, glazed tile; for mortality at 20 mg/m2: surface concentration 20 mg/m^2, glazed tile
# How it was run: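 Compound dissolved in acetone (2 mg/ml) with 2000 ppm rapeseed oil methyl ester, pipetted onto glazed tile and dried. Adult mosquitoes exposed on the surface for 30 min; percent mortality scored 24 h after contact.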
# [3] = test system: Myzus persicae; assay: Myzus persicae oral test; settings: 120 h, read-out: activity (mortality)
# How it was run: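 Percent mortality was recorded at day 5, where 0% means no aphids killed. Compound prepared from an acetone concentrate diluted in water and combined with IPL41 medium containing sugar was offered to mixed-stage green peach aphids, which sucked it through a parafilm seal.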
# [4] = test system: Rhipicephalus sanguineus; assay: Rhipicephalus sanguineus in-vitro contact test, adult brown dog ticks (RHIPSA Cont); settings: 48 h, after 48 hours, read-out: activity (efficacy: 100% means all ticks are dead or moribund); for pest or weed control at 1 µg/cm2, 100 g/ha: application rate 1 μg/cm^2 (=100 g/ha); for pest or weed control at 5 µg/cm2, 500 g/ha: application rate 5 μg/cm^2 (=500 g/ha)
# How it was run: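 Compound in acetone (9 mg/mL stock, diluted to test concentration) is coated onto inner walls of glass tubes by rotation for 2 h at 30 rpm. Efficacy is read after 48 h: ticks are tapped down and held on a 45-50° C plate for at most 5 min, and immotile or uncoordinated ones that fail to climb away count as dead or moribund.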
# [5] = test system: Culex quinquefasciatus strain P00; assay: Culex quinquefasciatus test (CULXFA surface treatment & contact assay); settings: exposure 30 minutes, 24 hours after contact, read-out: efficacy (mortality); for mortality at 20 mg/m2: surface concentration 20 mg/m^2, glazed tile; for mortality at 4 mg/m2: surface concentration 4 mg/m^2, glazed tile
# Method: Culex quinquefasciatus Test (CULXFA Surface Treatment & Contact Assay) Solvent: Aceton+2000 ppm rapeseed oil methyl ester (RME)
# In order to produce a sufficient, active ingredient containing solution it is necessary to solve the test compound in the solvent-mix (acetone at 2 mg/ml/RME 2 000 ppm). This solution is pipetted onto a glazed tile and after evaporation of the acetone, adult mosquitoes of the species Culex quinquefasciatus strain P00 are placed onto the dried surface. The exposure time is 30 minutes. Mortality in percent (%) is determined 24 hours after contact of the insects to the treated surface. 100% mortality means that all tested insects are dead, whereas 0% means that no insect died.
# [6] = test system: Nezara viridula; assay: Nezara viridula spray test; settings: in Hordeum vulgare, 96 h, barley plants, larvae, after 4 days; for mortality at 500 g/ha: application rate 500 g/ha; for mortality at 100 g/ha: application rate 100 g/ha
# How it was run: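 Mortality was read at day 4 (0% = no kill, 100% = total kill) after spraying larva-infested barley plants. Test solutions were made from an acetone/DMF concentrate diluted with water holding 1000 ppm alkylarylpolyglycol ether emulsifier.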
# [7] = test system: Anopheles funestus strain FUMOZ-R; assay: Anopheles funestus test (ANPHFU surface treatment & contact assay); settings: exposure 30 minutes, 24 hours after contact, read-out: efficacy (mortality); for mortality at 4 mg/m2: surface concentration 4 mg/m^2, glazed tile; for mortality at 20 mg/m2: surface concentration 20 mg/m^2, glazed tile
# How it was run: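 Adult FUMOZ-R mosquitoes were exposed 30 min to glazed tiles treated with compound in acetone plus 2000 ppm rapeseed oil methyl ester, after solvent evaporation. Percent mortality was scored 24 h after contact.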
SMILES,mortality at 20 mg/m2 [1] [%],mortality at 4 mg/m2 [2] [%],mortality at 20 mg/m2 [2] [%],mortality at 4 ppm [3] [%],"pest or weed control at 1 µg/cm2, 100 g/ha [4] [%]",mortality at 20 mg/m2 [5] [%],mortality at 500 g/ha [6] [%],mortality at 4 mg/m2 [1] [%],mortality at 4 mg/m2 [5] [%],mortality at 100 g/ha [6] [%],"pest or weed control at 5 µg/cm2, 500 g/ha [4] [%]",mortality at 4 mg/m2 [7] [%],mortality at 0.8 ppm [3] [%],mortality at 20 mg/m2 [7] [%]
CC(C)c1nc([C@H](C)NC(=O)c2cncc(C(F)(F)F)c2)n(-c2ccc(C#N)cn2)n1 [I-30],80 to 100,80 to 100,80 to 100,90,80,,,,,,,,,
C[C@H](NC(=O)c1cc(Cl)cc(OC(F)(F)F)c1)c1ncnn1-c1cc(N)ccn1 [II-7],80 to 100,,80 to 100,100,,80 to 100,90,,,,,,,
C[C@H](NC(=O)c1cc(Cl)cc(SC(F)F)c1)c1ncnn1-c1ccc(C#N)cn1 [II-11],80 to 100,80 to 100,80 to 100,100,,80 to 100,,80 to 100,80 to 100,100,80,,,
C[C@H](NC(=O)c1cc(Br)cc(Br)c1)c1ncnn1-c1ccc(C#N)cn1 [II-13],80 to 100,80 to 100,80 to 100,90,100,80 to 100,90,80 to 100,,,80,,,
C[C@H](NC(=O)c1cc(Br)cc(OC(F)(F)F)c1)c1ncnn1-c1ccc(C#N)cn1 [II-14],80 to 100,80 to 100,80 to 100,100,80,,100,80 to 100,,100,80,80 to 100,,
Cc1nc([C@H](C)NC(=O)c2cc(Cl)cc(C(F)(F)F)c2)n(-c2cc(C#N)ccn2)n1 [II-18],80 to 100,,,100,100,80 to 100,,80 to 100,,,100,,,
Cc1nc([C@H](C)NC(=O)c2cc(C(F)(F)F)cc(C(F)(F)F)c2)n(-c2cc(C#N)ccn2)n1 [II-19],80 to 100,80 to 100,80 to 100,100,100,80 to 100,,,,,100,,100,
Cc1nc([C@H](C)NC(=O)c2cc(Br)cc(C(F)(F)F)c2)n(-c2ccc(C#N)cn2)n1 [II-32],80 to 100,80 to 100,80 to 100,100,100,,100,80 to 100,,100,100,,100,
C[C@H](NC(=O)c1cc(C(F)(F)F)cc(C(F)(F)F)c1)c1ncnn1-c1ccc(C(=O)NC2CC2)cn1 [II-37],,80 to 100,80 to 100,100,,80 to 100,100,,,90,80,,100,
C[C@H](NC(=O)c1cc(Cl)cc(C#N)c1)c1ncnn1-c1ccc(C#N)cn1 [II-57],80 to 100,80 to 100,80 to 100,,100,80 to 100,,80 to 100,80 to 100,100,100,,,
Cc1nc([C@H](C)NC(=O)c2cc(Cl)cc(C#N)c2)n(-c2ccc(C#N)cn2)n1 [II-61],80 to 100,80 to 100,80 to 100,100,100,,,80 to 100,,100,100,,,
Cc1nc([C@H](C)NC(=O)c2cc(Cl)cc(C(F)F)c2)n(-c2ccc(C#N)cn2)n1 [II-65],80 to 100,80 to 100,80 to 100,100,100,,,80 to 100,,100,100,,,
C[C@H](NC(=O)c1cc(OC(F)F)cc(OC(F)F)c1)c1ncnn1-c1ccc(C#N)cn1 [II-77],80 to 100,80 to 100,80 to 100,100,,,,80 to 100,,100,100,80 to 100,90,80 to 100
C[C@H](NC(=O)c1cc(Cl)cc(C(F)(F)F)c1)c1ncnn1-c1ccc(N(C)C(=O)C2CC2)cn1 [II-79],,80 to 100,80 to 100,,80,,,,,100,80,80 to 100,100,80 to 100
C[C@H](NC(=O)c1cc(C(F)(F)F)cc(C(F)(F)F)c1)c1ncnn1-c1ccc(C(N)=O)cn1 [II-81],80 to 100,80 to 100,80 to 100,100,,,,,,100,,80 to 100,100,80 to 100
C[C@H](NC(=O)c1cc(Br)cc(C(F)F)c1)c1ncnn1-c1ccc(C#N)cn1 [II-83],80 to 100,80 to 100,80 to 100,100,100,,,80 to 100,,,100,80 to 100,,80 to 100
Cc1nc([C@H](C)NC(=O)c2cc(C(F)(F)F)cc(C(F)(F)F)c2)n(-c2ccc(C(=O)N(C)CC#N)cn2)n1 [II-99],80 to 100,,80 to 100,100,100,,,80 to 100,,100,100,,100,
C[C@H](NC(=O)c1cc(C(F)F)cc(C(F)F)c1)c1ncnn1-c1ccc(C#N)cn1 [II-101],80 to 100,80 to 100,80 to 100,100,100,,,80 to 100,,100,100,80 to 100,100,80 to 100
C[C@H](NC(=O)c1cc(OC(F)(F)F)cc(C(F)F)c1)c1ncnn1-c1ccc(C#N)cn1 [II-111],80 to 100,80 to 100,,100,100,,,,,100,100,,90,
C[C@H](NC(=O)c1cc(OC(F)F)cc(C(F)F)c1)c1ncnn1-c1ccc(C#N)cn1 [II-116],80 to 100,80 to 100,80 to 100,100,100,,,80 to 100,,100,100,,100,80 to 100
Cc1nc([C@H](C)NC(=O)c2cc(OC(F)(F)F)cc(C(F)F)c2)n(-c2ccc(C#N)cn2)n1 [II-117],80 to 100,80 to 100,80 to 100,100,100,,,80 to 100,,100,100,,100,
